Data published in patent US7745420B2, “Methods for increasing in vivo efficacy of oligonucleotides and inhibiting inflammation in mammals” (Topigen Pharmaceutique, Inc., priority 2001, dated 2010).
[DAP] = 2,6-diaminopurine base replacing adenine; [I] = hypoxanthine (inosine)

Assays:
rat model of asthma [1] = assay: Cellular influx into the lungs after antigen challenge (lung lavage differential cell count); type: in vivo; conditions: 200 μg intratracheal before ovalbumin challenge; for inhibition of recruitment of eosinophils: bronchoalveolar lavage after 15 hours
Description: (§1) Active sensitization of rats was performed by subcutaneous injection of 1 ml of saline containing 1 mg of chicken egg ovalbumin (OA) (Sigma, St. Louis, Mo.) and 3.5 mg of aluminum hydroxide gel (BDH Chemicals, Poole, UK).
On day 14 after sensitization with ovalbumin, after general anesthesia with 65 mg/Kg pentothal and endotracheal intubation, ovalbumin challenge is performed by injecting 200 micrograms of ovalbumin in 60 μl intratracheally. After 8 hours or 15 hours, the rats are again intubated after general anesthesia and a lung lavage consisting of 5 times 5 ml instillation of 0.9% saline is performed. Cells are washed, counted and centrifuged onto slides in a Cytospin III™. A differential cell count is performed.
On day 14, the rats were intubated after general anesthesia with pentothal (65 mg/kg) and received 200 μg of ASA4, ASA4-DAP (5′-DapCTCDapTDapTTCDapTDapGGGTG-3′; SEQ ID NO:27), AS141-DAP (5′-TGGCDapCTTTDapGGTGGCTG-3′; SEQ ID NO:29), mismatch AS141-DAP (5′-GTGCCDapTTTGDapGTGGCTG-3′; SEQ ID NO:30), combination of ASA4-DAP and AS141-DAP (total of 100 μg) or saline in 50 μl of 0.9% NaCl intratracheally. Twenty minutes later ovalbumin challenge is performed by injecting 200 μg of ovalbumin in 50 μl of 0.9% saline intratracheally. After 15 hours, the rats were again intubated after general anesthesia, and a lung lavage consisting of 5 times 5 ml instillation was performed. Cells were washed, counted and centrifuged onto slides in a Cytospin III™. A differential cell count was finally performed.

rat model of asthma [2] = conditions: see WO 99/66037; cited from earlier work
rat model of asthma [3] = assay: Leukotriene D4 responsiveness after antigen (ovalbumin) challenge; type: in vivo; conditions: 200 μg intratracheal, 15 hours after ovalbumin challenge; for airway responsiveness to leukotriene D4: vs control challenged and DAP mismatch treated rats
Description: as §1
(§2) The equipment and methodology for measuring pulmonary resistance was as previously described (Renzi, P. M., et al. Am. Rev. Respir. Dis 146: 163-169, 1992). General anesthesia was induced with either pentothal (50 mg/kg) or urethane (1.1 g/kg) intra-peritoneally. Endo-tracheal intubation was then performed using a 6 cm length of PE-240™ polyethylene catheter. A heating pad was used to maintain constant body temperature and rectal temperature was monitored continuously with an electronic thermometer (Telethermometer™, Yellow Springs Instrument Co., Yellowsprings, Ohio). Lung resistance (RL) was measured during spontaneous tidal breathing with the animals in the lateral decubitus position. Flow was measured by placing the tip of the tracheal tube inside a small Plexiglass™ box (265 ml in volume). A Fleish™ No. 0 pneumotachograph coupled to a differential pressure transducer (MP-45+2 cm H20; Validyne Corp, Northridge, Calif.) was attached to the other end of the box to measure airflow, and volume was obtained by numerical integration of the flow signal. Changes in esophageal pressure were measured by using a saline-filled catheter and a differential pressure transducer (Sanborn 267 BC™; Hewlett Packard, Waltham, Mass.). The other port of the transducer was connected to the box. The esophageal catheter consisted of polyethylene tubing (PE-200™) 20-cm long attached to a shorter length (6 cm) of tubing (PE-100™). Transpulmonary pressure was computed as the difference between esophageal and box pressure. The airway response was evaluated from RL, which was determined by fitting the equation of motion of the lung by multiple linear regression using commercial software (RHT-Infodat Inc., Montreal, Quebec, Canada).
We have previously shown that the antisense ASA4 (5′-ACTCATATTC ATAGGGTG-3′; SEQ ID NO:26) directed against the rat CCR3 receptor was effective at inhibiting eosinophil influx into the lungs after antigen challenge (see WO 99/66037). We employed the same oligonucleotide sequences for these experiments. […] After 15 hours, the rats were again intubated after general anesthesia, baseline lung resistance measured and doubling concentrations of leukotriene D4 injected intratracheally (50 ng to 1600 ng) until baseline lung resistance doubled (EC200).

[4] = system: common Beta chain of human GM-CSF, IL-3 and IL-5 receptor; assay: Semi-quantitative RT-PCR of common beta chain mRNA in U937 cells treated with antisense; type: cell-based; conditions: 10 μmol, six hours, compared to AS107
Description: Experiments were performed to assess whether antisense oligonucleotides described in international application WO 99/66037 (incorporated herein) directed against the common beta sub-unit of the IL-3, IL-5 and GM-CSF receptor, could inhibit the expression and the function of this receptor when modified by replacing adenosine by either 2-amino-2′-deoxyadenosine or inosine. TF-1 and U937 cells express high levels of GM-CSF receptors. In addition, TF-1 cells are dependent on GM-CSF for survival. These cells were cultured in RPMI 1640 supplemented with 10% heat-inactivated fetal calf serum, penicillin, streptomycin and 1-glutamine at 37° C. in 5% CO2 (the TF-1 cells were supplemented with GM-CSF). […] The sequence for 107A-DAP was: 5′-GGGTCTGCDapGCGGGDapTGGT-3′ (SEQ ID NO:21); the sequence for 107A-inosine (107A-I) was: 5′-GGGTCTGCIGCGGGIT GGT-3′ (SEQ ID NO:22). The cells were retrieved and washed 3 times. RNA was then retrieved and the presence of the beta chain of the receptor was assessed by semi-quantitative RT-PCR.

[5] = system: sensitized Brown Norway rats; assay: Airway responsiveness (lung resistance) to intratracheal adenosine, DAP nucleoside and DAP analogs; type: in vivo, rat
Description: as §1, §2
On day 14 post-sensitization, rats were anesthetized with pentothal (65 mg/kg), intubated, and baseline RL was measured. Rats were given incremental doses intratracheally of adenosine (CAS 58-61-7), 2,6-diaminopurine hemisulfate salt (CAS 69369-16-0), DAP (2-amino-2-deoxyadenosine; CAS 4546-70-7), 2-amino-9-(B-D-2′-deoxyribo furanosyl)purine (CAS 3616-24-8), 7-Deaza-2′deoxyadenosine (CAS 60129-59-1), N6-Methyl-2′-deoxyadenosine (CAS 2002-35-9), 2-aminoadenosine/2,6-diamunopurine riboside (CAS 2096-10-08) over the dose range of 0.125 μg to 100 μg in 50 μl of either saline or saline plus acetic acid. Immediately after each dose RL was measured. DAP was dissolved as follows: 3 mg of DAP was combined with 100 μl of acetic acid, adjusted to 1.5 to 3 ml by the addition of saline, and heated to 70° C. This gave a final concentration of 1 to 2 μg/μl. Dilutions were performed in the same buffer. Control animals received saline with acetic acid at the same final concentration as indicated.

[6] = system: sensitized but unchallenged Brown Norway rats; assay: Cellular influx into the lungs after adenosine or DAP administration; type: in vivo, rat
Description: Fourteen days after sensitization, the rats were intubated after anesthesia with pentothal 65 mg/kg, and 100 μg of adenosine or 2-amino-2′-deoxyadenosine or of 2-amino-2′deoxyadenosine followed 10 minutes later by adenosine or of saline was injected intratracheally in 50 μl. Fifteen hours later, the rats were intubated after general anesthesia with pentothal, and a lung lavage was performed and the cells were counted as described above.
In another experiment, groups of six sensitized but unchallenged Brown Norway rats were anesthetized with pentothal and endotracheally intubated. The rats then received an intratracheal injection of either (1) saline (control), (2) 100 μg of adenosine, (3) 100 μg of 2-amino-2′-deoxyadenosine (DAP) or (4) 100 μg of DAP followed by 100 μg of adenosine 10 minutes later. The rats were awakened, re-anesthetized and intubated 15 hours later for a lung lavage. Cells that were present in media collected from the lavage, were counted and a differential was obtained on Cytospin∩ slides.

[7] = at 5 fold lower concentration (1 μg)
[8] = at peak adenosine toxicity (5 μg)
[9] = 100 μg intratracheal, lung lavage 15 hours later

Q: What does the source list for “5′-ACTCATATTC ATAGGGTG-3′ (antisense ACTCATATTCATAGGGTG; DNA, all phosphorothioate, methylation of C not given here) [ASA4]”?
A: inhibition of recruitment of eosinophils (rat model of asthma [1]): 84%; lymphocyte recruitment (rat model of asthma [1]; lavage after 15 hours): significant decrease; macrophage recruitment (rat model of asthma [1]; lavage after 15 hours): strong trends for decreases; neutrophil recruitment (rat model of asthma [1]; lavage after 15 hours): strong trends for decreases; inhibition of the eosinophil influx that occurs after antigen challenge (rat model of asthma [2]): inhibit the eosinophil influx

Q: What does the source list for “5′-DapCTCDapTDapTTCDapTDapGGGTG-3′ (antisense NCTCNTNTTCNTNGGGTG; DNA, [DAP] at 1, 5, 7, 11, 13, all phosphorothioate, methylation of C not given here) [ASA4-DAP]”?
A: airway responsiveness to leukotriene D4, compared to unchallenged rats (rat model of asthma [3]): no different; airway responsiveness to leukotriene D4, compared to unmodified ASA4 (rat model of asthma [3]): tended to be more effective; airway responsiveness to leukotriene D4 (rat model of asthma [3]): significantly decreased; inhibition of recruitment of eosinophils (rat model of asthma [1]): 83%; decrease of lymphocyte recruitment (rat model of asthma [1]; lavage after 15 hours): 74%; macrophage recruitment (rat model of asthma [1]; lavage after 15 hours): tended to decrease; neutrophil recruitment (rat model of asthma [1]; lavage after 15 hours): tended to decrease

Q: With “5′-GGGTCTGCIGCGGGIT GGT-3′ (DNA GGGTCTGCNGCGGGNTGGT; DNA, [I] at 9, 15, backbone and methylation of C not given here) [AS107-I, reference compound]” as the compound, how does the “inhibiting mRNA expression, semi-quantitative PCR” value [4] read?
A: not effective

Q: For “5′-TGGCACTTTAGGTGGCTG-3′ (phosphorothioate backbone, further chemistry not given here) [AS141]”, which “airway responsiveness to leukotriene D4” value (rat model of asthma [3]) is on record?
A: decreased significantly

Q: And the lymphocyte recruitment (rat model of asthma [1]; lavage after 15 hours)?
A: significant decrease

Q: What about the macrophage recruitment (rat model of asthma [1]; lavage after 15 hours) of the same compound?
A: significant decrease

Q: What about the neutrophil recruitment (rat model of asthma [1]; lavage after 15 hours) of the same compound?
A: strong trends for decreases

Q: What about the recruitment of eosinophils (rat model of asthma [1]; lavage after 15 hours) of the same compound?
A: effectively inhibited

Q: And the “inhibition of the eosinophil influx that occurs after antigen challenge” value (rat model of asthma [2])?
A: inhibit the eosinophil influx

Q: Which macrophage recruitment (rat model of asthma [1]; lavage after 15 hours) does the source give for “5′-TGGCDapCTTTDapGGTGGCTG-3′ (antisense TGGCNCTTTNGGTGGCTG; diaminopurine (Dap) replaces adenosine at two places, sugar and backbone not given here, further chemistry not given here) [AS141-DAP]” here?
A: significantly decreased

Q: What about the recruitment of eosinophils (rat model of asthma [1]; lavage after 15 hours) of the same compound?
A: effectively inhibited

Q: For `Nc1nc(N)c2ncn([C@H]3C[C@H](O)[C@@H](CO)O3)c2n1` [DAP, 2-amino-2-deoxyadenosine], which “relative toxicity ranking (lung resistance)” value (“relative toxicity ranking” below) [5, 7] is on record?
A: adenosine>2 amino-2 deoxyadenosine/DAP>rest

Q: What about the “relative toxicity ranking” value [5, 8] of the same compound?
A: adenosine>N6-Methyl-2′deoxyadenosine>rest including DAP

Q: What about the “effect on lung resistance (% baseline) after intratracheal dosing” value ([5]; incremental doses 0.125 μg to 100 μg intratracheal, sensitized rats) of the same compound?
A: does not significantly increase lung resistance

Q: What about the “inhibition of eosinophil recruitment induced by adenosine” value ([6]; 100 μg DAP followed by 100 μg adenosine 10 minutes later, lavage 15 hours later) of the same compound?
A: completely inhibits the recruitment of eosinophils

Q: For `CNc1ncnc2c1ncn2[C@H]1C[C@H](O)[C@@H](CO)O1` [N6-Methyl-2′deoxyadenosine, N6-methyl-2′-deoxyadenosine], which “relative toxicity ranking” value [5, 8] is on record?
A: adenosine>N6-Methyl-2′deoxyadenosine>rest including DAP

Q: What does the source list for `Nc1ncnc2c1ncn2[C@@H]1O[C@H](CO)[C@@H](O)[C@H]1O` [adenosine, reference compound]?
A: relative toxicity ranking (lung resistance) [5, 7]: adenosine>2 amino-2 deoxyadenosine/DAP>rest; relative toxicity ranking (lung resistance) [5, 8]: adenosine>N6-Methyl-2′deoxyadenosine>rest including DAP; dose at which lung resistance peaks ([5]; incremental intratracheal doses, sensitized rats): 5 µg; effect on other cell types in lung lavage [6, 9]: without significantly affecting other cell types; increase of eosinophil recruitment into the lungs [6, 9]: more than 10 fold
